Assay results reported in patent US6399649B1, “Compositions and methods for the treatment of chronic lymphocytic leukemia” (Boston Medical Center Corporation, priority 1998, dated 2002).

Key:
CD19+ B cells = assay: cAMP assay (RIA) in CD19+ B cells; assay type: cell-based, human; conditions: at two hours; unstimulated or anti-Ig stimulated
Protocol: (§1) One million cells in 1 mL were treated for two hours with or without drugs. 0.8 mL of cells were pelleted by spinning at 4,000 rpm (RCF=1,310) in microcentrifuge tube. After discarding 0.7 mL, 400 uL of ethanol was added, vortexed and left on ice for five minutes. Particulate cell debris was removed by centrifugation at 14,000 rpm (RCF=16,000). The supernatant was stored at −20° C. until the day of assay, at which time it was dried in a Speedivac (Savant, Farmingdale, N.Y.) to a volume of 50 uL. After ten-fold dilution in 10 mMol/L Tris pH 8.0, 1 mMol/L EDTA, the cAMP sample was analyzed for cAMP concentration using a cAMP RIA kit (NEN, Boston, Mass.) according to the manufacturer's instructions using the nonacetylated protocol.
For each of the four cell populations, two or six hours after drug treatment, cAMP levels were higher for rolipram/forskolin-treated cells than for forskolin only treated cells (test: one tailed significance level<0.05) (FIG. 9).

CLL cells = assay: cAMP assay (RIA) in CLL cells; assay type: cell-based, human; conditions: two hours; used alone and combined with forskolin
Protocol: as §1
In this example, it was determined what role type 1 and type 4 PDE activity might play in the catabolism of cyclic nucleotides in CLL cells. cAMP levels were measured after culturing leukemic cells with varying concentrations of PDE-isoform specific inhibitors, either alone or in conjunction with an activator of adenylate cyclase, the diterpene forskolin. Specifically, one million freshly isolated cells were incubated with the indicated drugs for two hours prior to analysis of cAMP in cell lysates using a radioimmunoassay. The results are shown in FIG. 4 and the data are the mean of three individually assayed culture wells.

[1] = cited from earlier work
[2] = system: PDE activity in CLL cells; assay: cAMP PDE assay on CLL cell lysates; assay type: biochemical, human; conditions: 10 uMol/L
Source text: The technique of Robiesek et al., itself adapted from an assay described by Thompson and Appleman, was used in modified form. S. A. Robicsek et al., “Multiple high-affinity cAMP-phosphodiesterases in human T-lymphocytes,” Biochem. Pharmacol. 42:869 (1991). W. J. Thompson and M. M. Appleman, “Multiple cyclic nucleotide phosphodiesterase activities from rat brain,” Biochemistry 10:311 […]. 150 million purified CLL cells were pelleted and sonicated (Branson 350 Sonifier with micropit probe, output =2, 50% duty cycle) on ice in 1.0 mL of a buffer which contained 20 mMol/L Tris (pH 6.8), 1 mMol/L EDTA, aprotinin (50 u/mL), pepstatin (1 mg/mL), PMSF (1 mMol/L) and 3.75 mMol/L b-ME. Assay buffer contained 100 mMol/L Tris (pH 8.0), 20 mMol/l MgCl2, 0.2% BSA and 7.5 mMol/L b-ME. [^3H]-cAMP (NEN, Boston, Mass.) was incubated with PDE for 10 minutes at 30° C. in 20 uL volumes (10 uL of sonication buffer and 10 uL of assay buffer) which contained 0.22 units of alkaline phosphatase. 10 uMol/L rolipram or 0.2 mMol/L calcium/20 nMol/L calmodulin were added to the assay buffer as appropriate. Reactions were halted by the addition of 0.5 mL of a 1:3 slurry w/v slurry of AG1-X8 anion exchange resin and a mixture of equal volumes of water and isopropanol. […] The radiolabelled nucleosides in the supernatant were counted using Ecoscint scintillation fluid (National Diagnostics, Atlanta, Ga.). […]

In the case of `COc1ccc(C2CNC(=O)C2)cc1OC1CCCC1` (racemic) [rolipram, 4-(3-cyclopentyloxy-4-methoxyphenyl)-2-pyrrolidone], the “cAMP levels in CD19+ B cells” value (CD19+ B cells) is given as “raised cAMP levels equivalently”, the “CLL cAMP levels” value (CLL cells) is given as “augmented CLL cAMP levels” and the emesis ([1]; humans, higher dosages) is given as “emetogenic”. The tolerability ([1]; studied as an antidepressant in humans) was “well tolerated” and the “PDE activity in CLL cells” value [2] was “inhibited”.
